Source: patent US20160355503A1, “NITROGEN HEXACYCLE COMPOUNDS AS INHIBITORS OF p97 COMPLEX” (Cleave Biosciences, Inc., priority 2015, published 2016)

How the values were obtained:
p97 = p97 (Homo sapiens, UniProt P55072); assay: P97 ATPase biochemical assay (ADP Glo); conditions: 20 nM p97, 20 μM ATP, 37° C. for 15 minutes
Description: The ATPase assay is performed according the following protocol: Purified enzyme (20 nM p97), substrate (20 μM ATP) and a dose titration of compounds are mixed in buffer (50 mM TRIS pH 7.5, 20 mM MgCl2, 0.02% TX-100, 1 mM DTT, 0.2% (v/v) glycerol) and incubated at 37° C. for 15 minutes. The reaction is terminated and the level of product generated is measured using the ADP Glo Assay Kit (Promega, Madison Wis.). Plotting product generated versus compound concentration and using a four-parameter fit model generates an IC50 value for each compounds.
The p97 assay is an initial screening assay used to determine inhibitory activity of the triazine compounds of the invention against the p97 complex. As discussed above, inhibition of activity of the p97 proteosome complex can enable apoptosis and cause elimination of neoplastic cells (cancer cells). The method follows that of Christianson in Nat. Cell Biol., (2011) 14:93.
Assay Buffer is a mixture of 50 mM TRIS pH 7.5, 20 mM MgCl2, 0.02% TX-100, 1 mM DTT and 0.2% (v/v) Glycerol. The well plate is Platetype: Corning 3674, 384w plate. The identification kit is an ADP glo kit (Promega): stop buffer, detection reagent.
Serial dilute compound in DMSO in a 1:3.33-fold 10 point serial dilution.
in each well of 384w plate add the following reagents:
0.5 μL compound serial diluted in DMSO (Final Conc. 10%)
2 μL ATP (Final Conc.=20 uM, diluted in assay buffer)
2.5 μL p97 (Final Conc.=20 nM, diluted in assay buffer)
Incubate at 37 deg C. for 15 min.
Add 5 μL of stop buffer, incubate at RT for 40 min.
Add 10 μL of detection reagent, incubate at RT for 30 min.
Read luminescence on Envision plate reader.
Upon obtaining the data from the luminescence reading, the data may be analyzed as follows:
Normalize luminescence data using no enzyme (full inhibition) and no compound (no inhibition) controls. Plot normalized luminescence data against log-transformed concentration values and fit to a sigmoidal curve to determine IC50 values (done in Collaborative Drug Discovery software).

K48-Ub = K48-Ub immunofluorescence assay in A549 cells; type: cell-based; conditions: Homo sapiens, 6 hr incubation
Description: Image-analysis is used to generate quantitative data from these assays that can be fit to a four-parameter sigmoid curve to derive IC50 values. Substrates of the ubiquitin-proteasome system, such as p53, are monitored after tumor cell lines are incubated with compounds for several hours. Accumulation of these proteins indicates an inhibition of proteasome-mediated degradation. Accumulation of lysine-48 chain linkage of poly-ubiquitin is also monitored by immunofluorescence as an indicator of ubiquitin-proteasome system inhibition. Both LC3 and SQSTM1 are mediators of autophagy. The localization and amounts of these proteins are monitored by immunofluorescence and report on the activity and inhibition of autophagy in response to p97 inhibition.
(§1) The cellular assay provides information about the anti-neoplastic activity of the compounds of the invention. The compounds are tested against cultured cancer cells to determine whether or not the compounds of the invention are capable of intersecting with cancer cells to minimize or eliminate such cells. The assay involves establishing colonies of such cells and then treating them with the test compound under specified conditions and analysis regima to determine results.
(§2) Cell Plating: • Seed cells ˜16 hrs prior to compound treatment • Plate 25 μL of A549 cells in every well of 384-well plate using multidrop. • Two (2) black plates for IF at 2500 cells/well • Let plate sit at room temp for 10-15 minutes prior to putting in incubator to allow cells to stick in middle of plate. • One (1) white plate for viability at 500 cells/well.
(§3) Treat Cells: • Serial dilute compounds with a 10 point 2-fold serial dilution in DMSO to make 250× stock compound solution • Dilute compounds 1:125 in cell culture media to make a 2× solution • Add 25 μl of dilution compounds to cell plates in well duplicates • Put cells back in incubator (6 hr incubation for black plates, 72 hr incubation for white plates).
Fix/Stain Black Plates: • Incubate cells in black plates with compound at 37 deg C. for 6 hrs. • add 15 μL of 16% Paraformaldehyde (PFA) directly into media of each well, • incubate at room temp for 5 min, flick plate and wash in 50 μL of PBS • block in 50 μL of Blocking Buffer for 30 minutes (can go up to several hours) • Blocking buffer: 1×PBS, 1% BSA, 0.3% Triton-X100, Hoechst (1:10,000) • incubate in 25 μL of primary antibody in blocking buffer at 4 deg C. over night
Secondary Antibodies: • AlexaFluor488 Goat anti-Rabbit 1:2,000 (Life Tech A11008) • AlexaFluor555 Goat anti-Mouse 1:2,000 (Life Tech A21422) […]
Data Analysis: • Nuclear counts and cellular intensities of each markers are measured using Hoechst as a nuclear marker with an automated image analysis protocol using Matlab software (Math Works)

A549 cells = assay: Cultured cancer cell viability assay (cell titer glo, CTG); type: cell-based; conditions: Homo sapiens, 72 hr incubation
From the text: Anti-tumor effects are monitored in cultured cancer cells after several days of compound treatment. The cell titer glo assay (Promega) measures the amount of ATP present as a proxy for cellular viability. Cellular counting is done using high-content microscopy followed by image analysis. A hanging drop 3D-culture system (3D Biomatrix) is used followed by cell titer glo to measure growth in a tumor-like environment.
as §1, §2, §3
Viability Assay: • Thaw an aliquot of frozen cell titer glo (Promega G7572) at room temperature. • Add 45 mL of NaCl/PBS solution to 5 ml of cell titer glo (10×). • Remove white plates from incubator, leave at room temp for 30 minutes. • Add 25 μl of diluted cell titer glo to each well. • Shake plate for >1 minute. • Incubate plate for >5 minutes to stabilize luminescence. • Luminescence is stable for up to 3 hours. • Read luminescence on plate reader

Chain of p97 (P55072 whole entry): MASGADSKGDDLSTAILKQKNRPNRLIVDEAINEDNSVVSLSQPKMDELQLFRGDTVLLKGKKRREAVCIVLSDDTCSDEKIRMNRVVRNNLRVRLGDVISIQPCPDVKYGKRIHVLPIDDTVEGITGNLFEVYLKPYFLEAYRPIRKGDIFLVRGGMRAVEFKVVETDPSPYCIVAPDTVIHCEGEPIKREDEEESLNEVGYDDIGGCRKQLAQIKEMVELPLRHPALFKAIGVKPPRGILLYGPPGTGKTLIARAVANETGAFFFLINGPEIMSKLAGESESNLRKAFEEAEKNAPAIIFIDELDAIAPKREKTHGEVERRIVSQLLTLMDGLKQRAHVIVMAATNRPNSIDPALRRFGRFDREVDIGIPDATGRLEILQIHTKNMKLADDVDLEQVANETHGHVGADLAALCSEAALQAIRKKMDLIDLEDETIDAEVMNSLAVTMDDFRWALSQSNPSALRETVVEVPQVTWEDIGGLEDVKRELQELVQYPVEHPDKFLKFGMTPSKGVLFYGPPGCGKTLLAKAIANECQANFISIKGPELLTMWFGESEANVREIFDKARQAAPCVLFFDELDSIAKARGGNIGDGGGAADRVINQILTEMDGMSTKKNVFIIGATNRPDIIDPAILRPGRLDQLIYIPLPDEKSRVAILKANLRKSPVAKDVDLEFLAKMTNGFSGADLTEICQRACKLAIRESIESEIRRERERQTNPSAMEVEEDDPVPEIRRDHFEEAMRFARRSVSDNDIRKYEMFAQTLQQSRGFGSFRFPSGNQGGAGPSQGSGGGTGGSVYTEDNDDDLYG

Row | Compound | IC50 (p97) [µM] | IC50 (K48-Ub) [µM] | IC50 (A549 cells) [µM] | Peff A B, Range (Caco-2 cells; pH 7.4 Caco-2, A to B) | Peff B A, Range (Caco-2 cells; pH 7.4 Caco-2, B to A)
1 | CCc1nnc(-n2c(C)cc3c(C(N)=O)cccc32)nc1NCc1ccccc1 [1-(5-(benzylamino)-6-ethyl-1,2,4-triazin-3-yl)-2-methyl-1H-indole-4-carboxamide] | < 0.03 | < 1 | < 1 |  | 
2 | Cc1nnc(-n2c(C)cc3c(C(N)=O)cccc32)nc1NCc1cccc(F)c1 [1-(5-((3-fluorobenzyl)amino)-6-methyl-1,2,4-triazin-3-yl)-2-methyl-1H-indole-4-carboxamide] | < 1 | < 3 | < 10 |  | 
3 | Cc1nnc(-n2c(C)cc3c(C(N)=O)cccc32)nc1NCc1ccccc1 [1-(5-(benzylamino)-6-methyl-1,2,4-triazin-3-yl)-2-methyl-1H-indole-4-carboxamide] | < 0.03 | < 3 | < 3 |  | 
4 | Cc1nnc(-n2c(CN)cc3c(C(N)=O)cccc32)nc1NCc1ccccc1 [2-(aminomethyl)-1-(5-(benzylamino)-6-methyl-1,2,4-triazin-3-yl)-1H-indole-4-carboxamide] | < 10 |  |  |  | 
5 | COc1nc2c(C#N)cccc2n1-c1nnc(C)c(NCc2ccccc2)n1 [1-(5-(benzylamino)-6-methyl-1,2,4-triazin-3-yl)-2-methoxy-1H-benzo[d]imidazole-4-carbonitrile] | < 10 |  |  |  | 
6 | CC(C)NCC(O)COc1cccc2ccccc12 (stereo not shown) [Propranolol] |  |  |  | 18.50-36.80 ×E−6 cm/sec | 16.30-31.40 ×E−6 cm/sec
7 | Cc1nc(NCc2ccccc2)nc(-n2c(C)cc3c(C(N)=O)cccc32)n1 [1-(4-(benzylamino)-6-methyl-1,3,5-triazin-2-yl)-2-methyl-1H-indole-4-carboxamide] | < 0.1 | < 3 | < 10 |  | 
